Results on eleven compounds are retold here after US6562814B2, “3-thioxo-[1,2,4]-oxadiazinan-5-one derivatives” (Wyeth, priority 2000, dated 2003).

SMILES strings stand for the structures.

One data set has as its system serum HDL cholesterol. The data set is described as follows: HDL cholesterol determination in cholesterol/cholic acid-fed rats. It is filed as in vivo, Male Sprague-Dawley rats. The note with it: Rattus norvegicus, feed or water, 192 h, 8 days, rats fed chow with 0.25% cholic acid and 1.0% cholesterol, FPLC, read-out: HDL Cholesterol Level Increase (%); for change in vivo at 100 mg/kg/day: dose 100 mg/kg/day in diet. Here is the method:
The ability of the compounds of this invention to increase blood serum HDL levels was established by the following standard experimental procedure for determination of HDL cholesterol:
Male Sprague-Dawley rats weighing 200-225 g were housed two per cage and fed Purina Rodent Chow Special Mix 5001-S supplemented with 0.25% cholic acid and 1.0% cholesterol and water ad libitum for 8 days. Each test substance is administered to a group of six rats fed the same diet with the test diet mixed in as 0.005-0.1% of the total diet. Body weight and food consumption were recorded prior to diet administration and at termination. Typical doses of the test substances were 5-100 mg/kg/day.
At termination, blood was collected from anesthetized rats and the serum was separated by centrifugation. Total serum cholesterol was assayed using the Sigma Diagnostics enzymatic kit for the determination of cholesterol, Procedure No. 352, modified for use with ninety-six well microtiter plates. After reconstitution with water the reagent contains 300 U/I cholesterol oxidase, 100 U/I cholesterol esterase, 1000 U/I horse radish peroxidase, 0.3 mmoles/l 4-aminoantipyrine and 30.0 mmoles/l p-hydroxybenzenesulfonate in a pH 6.5 buffer. In the reaction cholesterol was oxidized to produce hydrogen peroxide which was used to form a quinoneimine dye. The concentration of dye formed was measured spectrophotometrically by absorbence at 490 nm after incubation at 25° C. for 30 minutes. The concentration of cholesterol was determined for each serum sample relative to a commercial standard from Sigma.
HDL cholesterol concentrations in serum are determined by separation of lipoprotein classes by fast protein liquid chromatography (FPLC) by a modification of the method of Kieft et al., J. Lipid Res., 32 (1991) 859-866. 25 ul of serum was injected onto Superose 12 and Superose 6 (Pharmacia), in series, with a column buffer of 0.05 M Tris (2-amino-2-hydroxymethyl-1,3-propanediol) and 0.15 M sodium chloride at a flow rate of 0.5 ml/min. The eluted sample was mixed on line with Boehringer-Mannheim cholesterol reagent pumped at 0.2 ml/min. The combined eluents are mixed and incubated on line through a knitted coil (Applied Biosciences) maintained at a temperature of 45C. The eluent was monitored by measuring absorbence at 490 nm and gives a continuous absorbence signal proportional to the cholesterol concentration. The relative concentration of each lipoprotein class was calculated as the percent of total absorbence. HDL cholesterol concentration, in serum, was calculated as the percent of total cholesterol as determined by FPLC multiplied by the total serum cholesterol concentration.
Test compounds were administered at the specified dose. Each test substance was administered to a group of six rats. The duration of treatment was eight days.

With `Cc1cc(Cl)ccc1N1C(=O)CON(C)C1=S` [Example 1, 4-(4-Chloro-2-methylphenyl)-2-methyl-3-thioxo-[1,2,4]oxadiazinan-5-one], the melting point was in the range of 141 to 143 °C. For the same compound, in the data set with serum HDL cholesterol, the change in vivo at 100 mg/kg/day turned out to be 221%.
In the same order, the values of `CN1OCC(=O)N(C(c2ccccc2)c2ccccc2)C1=S` [Example 2, 4-Benzhydryl-2-methyl-3-thioxo-[1,2,4]oxadiazinan-5-one] are 152 to 154 °C and 60%.
In the same order, the values of `Cc1ccc(Cl)cc1N1C(=O)CON(C)C1=S` [Example 3, 4-(5-Chloro-2-methylphenyl)-2-methyl-3-thioxo-[1,2,4]oxadiazinan-5-one] are 100 to 102 °C and 236%.
The compound `CCN1OCC(=O)N(c2cc(Cl)ccc2C)C1=S` [Example 4, 4-(5-Chloro-2-methylphenyl)-2-ethyl-3-thioxo-[1,2,4]oxadiazinan-5-one] yielded a melting point of 119 to 121 °C. In the data set on serum HDL cholesterol (dose 85 mg/kg/day in diet), the change in vivo at 85 mg/kg/day is 136%.
Compound `CN1OCC(=O)N(c2ccc3c(c2)CCC3)C1=S` [Example 5, 4-Indan-5-yl-2-methyl-3-thioxo-[1,2,4]oxadiazinan-5-one] gave a melting point of 135 to 137 °C. For the same compound, the change in vivo at 100 mg/kg/day in the data set with serum HDL cholesterol came to 192%.
For `Cc1ccc(C)c(N2C(=O)CON(C)C2=S)c1` [Example 6, 4-(2,5-Dimethylphenyl)-2-methyl-3-thioxo-[1,2,4]oxadiazinan-5-one], in that order: 104 to 106 °C and 72%.
For `Cc1cccc(Cl)c1N1C(=O)CON(C)C1=S` [Example 7, 4-(2-Chloro-6-methylphenyl)-2-methyl-3-thioxo-[1,2,4]oxadiazinan-5-one], in that order: 176 to 178 °C and 100%.
In the same order, the values of `CC(C)c1ccccc1N1C(=O)CON(C)C1=S` [Example 8, 4-(2-Isopropylphenyl)-2-methyl-3-thioxo-[1,2,4]oxadiazinan-5-one] are 98 to 101 °C and 95%.
For the compound `CN1OCC(=O)N(c2ccc(C(C)(C)C)cc2)C1=S` [Example 9, 4-(4-tert-Butylphenyl)-2-methyl-3-thioxo-[1,2,4]oxadiazinan-5-one], the melting point was 168 to 170 °C. In addition, the change in vivo at 100 mg/kg/day with serum HDL cholesterol came out at 170%.
For `CN1OCC(=O)N(c2ccc(Oc3ccccc3)cc2)C1=S` [Example 10, 4-(4-Phenoxyphenyl)-2-methyl-3-thioxo-[1,2,4]oxadiazinan-5-one], in that order: 159 to 160 °C and 102%.
In turn, `COc1ccc(Cl)cc1N1C(=O)CON(C)C1=S` [Example 11, 4-(5-Chloro-2-methoxyphenyl)-2-methyl-3-thioxo-[1,2,4]oxadiazinan-5-one] came in with a melting point of 189 to 191 °C. In the data set with serum HDL cholesterol, the change in vivo at 100 mg/kg/day stood at 78%.

The melting point is the temperature of the solid-liquid transition.
